The values that follow are results of earlier work, collected in US20100120780A1, “TREATMENTS FOR PREMATURE EJACULATION IN HUMANS” (priority 2007, published 2010).

Where a name gives a salt, the structure may show the parent alone. Some results are limits rather than exact numbers.

In series [1] the target is phosphodiesterase type 5 (PDE5) (Homo sapiens, UniProt O76074). The following applies: PDE5 vs PDE6.
For series [2] the following is noted: oral administration, Viagra formulation.
For series [3] the following is noted: for accumulation: multiple dose treatment with tramadol.
The next series concerns the target μ-opiate receptors (Homo sapiens, UniProt P35372).
For series [4] the following is noted: rats.
For series [5] the following is noted: 0.2M sodium chloride.

μ-opiate receptors, sequence (P35372 whole entry): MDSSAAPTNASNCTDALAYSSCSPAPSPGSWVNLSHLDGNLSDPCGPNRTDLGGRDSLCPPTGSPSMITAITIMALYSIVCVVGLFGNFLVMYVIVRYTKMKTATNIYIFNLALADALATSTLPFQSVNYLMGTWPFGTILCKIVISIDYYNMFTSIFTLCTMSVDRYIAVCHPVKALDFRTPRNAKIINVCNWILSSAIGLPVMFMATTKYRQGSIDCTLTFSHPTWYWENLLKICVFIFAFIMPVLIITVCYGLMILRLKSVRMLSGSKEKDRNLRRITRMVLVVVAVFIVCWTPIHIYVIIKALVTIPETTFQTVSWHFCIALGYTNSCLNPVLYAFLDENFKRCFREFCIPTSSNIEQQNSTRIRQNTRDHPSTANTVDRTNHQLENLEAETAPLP

On to `CCCc1nn(C)c2c(=O)[nH]c(-c3cc(S(=O)(=O)N4CCN(C)CC4)ccc3OCC)nc12` [sildenafil, 1-[[3-(6,7-dihydro-1-methyl-7-oxo-3-propyl-1H-pyrazolo[4,3-d]pyrimidin-5-yl)-4-ethoxyphenyl]sulfonyl]-4-methyl piperazine], for which, in series [1], the “potency for PDE5 compared to PDE6” value is given as “about 10 fold”. The absolute bioavailability result in series [2] is listed as “about 40%”.
`COc1cccc(C2(O)CCCCC2CN(C)C)c1` (racemic) [tramadol, (+/−)-trans (RR,SS)-2-[(di-methylamino)methyl]-1-(3-methoxyphenyl)cyclohexanol]: the accumulation result in series [3] is “approximately 2 fold”. The “time to peak serum concentrations” value in series [3] (oral administration) is at most 2 h. Also, the “duration of the analgesic effect” value (single oral dose of tramadol 100 mg) is given as “about 6 hours”. At μ-opiate receptors (relative to codeine), the “affinity for μ-opiate receptors, fold less than codeine” value was 10 fold. In addition, the “affinity for μ-opiate receptors, fold less than d-propoxyphene” value on μ-opiate receptors (relative to d-propoxyphene) is on record as 100 fold. The “affinity for μ-opiate receptors compared to dextromethorphan” value on μ-opiate receptors (relative to dextromethorphan) is recorded as “equivalent”. In addition, the “affinity for μ-opiate receptors, fold less than morphine” value at μ-opiate receptors (relative to morphine) is reported as 6,000 fold.
For `COc1cc(CNC(=O)CCCCC=CC(C)C)ccc1O` [capsaicin, 8-methyl-N-vanillyl-6-nonenamide], in series [4] (intravenous administration), the “time to distribution to the brain, spinal cord, liver and blood” value is at most 20 min. Moreover, in series [4] (oral dosing, after 3 hours), the “absorption in the jejunum” value was 85%.
In the case of `CN(C)C[C@H]1CCCC[C@]1(O)c1cccc(O)c1` [M1 derivative, O-desmethyltramadol], in series [3], the accumulation result is listed as “approximately 2 fold”. In addition, for the setting “relative to tramadol”, the “analgesic potency relative to the parent drug” value is “at least twice”.
In the case of `COc1ccc(C(CN(C)C)C2(O)CCCCC2)cc1` (racemic) [Venlafaxine hydrochloride, (R/S)-1-[2-(dimethylamino)-1-(4-methoxyphenyl)ethyl]cyclohexanol], in series [5], the “octanol:water partition coefficient” value was 0.43.
